Data set [1] relates to Staphylococcus aureus 01A1095, Mac-R. Description: MIC against ribosome-based resistance phenotypes. The class given is cell-based. Conditions: read-out: Minimum Inhibitory Concentration (MIC).
Data set [2] has as its system S. aureus ATCC 29213. Put plainly: Broth microdilution MIC (CLSI). The class given is cell-based.
Data set [3] relates to S. aureus ATCC 29213. Description: Agar dilution MIC (CLSI reference method). The class given is cell-based. Conditions: Staphylococcus aureus, ATCC29213.
In data set [4] the test system is B. thetaiotaomicron ATCC 29741. Put plainly: microbe, parasite or virus in culture. Particulars: for MIC: Bacteroides thetaiotaomicron, ATCC29741, read-out: MIC, Broth. The class given is cell-based.
Data set [5] can be described thus: Dynamic vapor sorption/desorption (DVS). The class given is physicochemical. As for the experimental part: Dynamic vapor sorption/desorption (DVS) data were collected on a VTI SGA-100 Vapor Sorption Analyzer. […] Samples were not dried prior to analysis. Equilibrium criteria used for analysis were less than 0.0100% weight change in 5 minutes, with a maximum equilibration time of 3 hours if the weight criterion was not met. Data were not corrected for the initial moisture content of the samples. Sodium chloride and polyvinylpyrrolidine (PVP) were used as calibration standards.

Data set [6] in a line: Solubility of salts in water by HPLC at 23° C. The class given is physicochemical. Conditions: for Adjusted pH: pH after adjustment to approximately 3.5; for Native pH: supernatant of saturated solution in water. As for the experimental part:
In another set of experiments, solubility of various radezolid salts was determined by HPLC. Approximately 1 mL of saturated solution (with excess of solid in solution) of each salt was prepared in water. The mixture was further mixed overnight on a slurry wheel then centrifuged on a desktop centrifuge at maximum speed for approximately 5 min. The supernatant was collected, and pH was measured. Solubility was determined at the native pH. Then the pH was adjusted to approximately 3.5 with sodium hydroxide solution or an acid solution in which salt was generated. The supernatant was filtered through a 0.2 µm nylon syringe filter and diluted into 0.1% formic acid solution immediately after filtration for HPLC. All HPLC analyses were performed using an Agilent 1100 series liquid chromatograph equipped with a diode array detector, degasser, quaternary pump, and an autosampler. […] The column temperature was set to 30° C., and the detector wavelength was 270 nm with a bandwidth of 8 nm and a reference wavelength of 360 nm. The mobile phase A was 0.1% formic acid in water (HPLC grade), mobile phase B was 0.1% formic acid in methanol (HPLC grade). […] The injection volume was 5 μL.

Data set [7] in a line: physchem. The class given is physicochemical. Particulars: pH 5.5, aqueous buffer.
Data set [8] can be described thus: Solubility of salts in approved topical solvents. The class given is physicochemical. As for the experimental part: The solubility of radezolid HCl salt in various approved topical solvents was measured at 19-21° C. by adding a known amount of the radezolid HCl salt to a known amount of the solvent. Increasing amounts of the radezolid HCl salt were added if the solvent was not saturated.
The solubility of radezolid esylate and mesylate salts in various approved topical solvents was measured at 19-21° C. by adding a known amount of the radezolid salts to a known amount of the solvent. Increasing amounts of the radezolid salts were added if the solvent was not saturated.

For data set [9] the following is noted: in vivo.
Data set [10] in a line: Long-term rat safety study (body weight, survival, clinical pathology, exposure).
For data set [11], the system named is ten isolates (ATCC). The class given is cell-based. Conditions: for all organisms.
Data set [12] can be described thus: Solubility of free base in oily excipients. The class given is physicochemical. Particulars: 19-21° C. As for the experimental part:
The solubility of radezolid free base in various oily excipients was measured at 19-21° C. by adding a known amount of the free base to a known amount of the oily excipients. Increasing amounts of the free base were added if the oily excipient was not saturated.
In some embodiments, facial acne formulations are disclosed herein. In some embodiments, the amount of oil in an emulsion base (cream or lotion) is between 10-15% w/w. In further embodiments, the amount of oil in an emulsion base (cream or lotion) is less than 10%. To obtain a 1% w/w formulation of the free base dissolved in a dispersed oil phase, its solubility in that oil phase needs to be approximately 10% w/w. Radezolid free base was screened in oily excipients at a level of approximately 5% w/w. If an oily excipient could not dissolve at least 5% w/w, it would be unlikely to contribute to higher solubility in other oily excipients (i.e. low potential for synergy).

Data set [13] relates to G. vaginalis ATCC 14018. Description: Agar dilution MIC (CLSI reference method). The class given is cell-based. Conditions: G. vaginalis (isolates of Table 1).
Data set [14] can be described thus: Granuloma pouch: bacterial burden and radezolid levels in pouch and plasma. The class given is in vivo. Conditions: FIGS. 3-4.
The subject of data set [15] is P. granulosum ATCC 25746. Put plainly: Broth microdilution MIC (CLSI). The class given is cell-based.
Data set [16] has as its system P. acnes ATCC 11828. Put plainly: Agar dilution MIC (CLSI reference method). Particulars: P. acnes (isolates of Table 1). The class given is cell-based.
Data set [17] concerns G. vaginalis ATCC 49145. Put plainly: Broth microdilution MIC (CLSI). The class given is cell-based. Particulars: G. vaginalis 49145.
In data set [18] the test system is P. granulosum ATCC 25746. Description: Agar dilution MIC (CLSI reference method). The class given is cell-based.
Data set [19] has as its system F. magna ATCC 15794. Description: Agar dilution MIC (CLSI reference method). The class given is cell-based.
The test system of data set [20] is mammalian cells (e.g., defense cells, macrophages, lung cells, and non-phagocytic cells). Conditions: cited from earlier work.
The nature of data set [21]: Solubility of salts in water, visual/microscopic. As for the experimental part: Approximately 2-3.5 mg of each salt was weighed into a glass vessel at ambient temperature. HPLC grade water, 200 μL, was added to each and stirred with a stir bar for two hours. Samples were inspected for solubility both visually and/or microscopically using a Carl Zeiss SV8 stereomicroscope.

Converted amounts (≈) assume the structure as drawn.

In the case of `CC[C@H]1OC(=O)[C@H](C)[C@@H](O[C@H]2C[C@@](C)(OC)[C@@H](O)[C@H](C)O2)[C@H](C)[C@@H](O[C@@H]2O[C@H](C)C[C@H](N(C)C)[C@H]2O)[C@](C)(O)C[C@@H](C)CN(C)[C@H](C)[C@@H](O)[C@]1(C)O` [Azithromycin, azithromycin], the MIC in [1] was 128 µg/mL (≈ 171 µM).
For the compound `CCC[C@@H]1C[C@@H](C(=O)N[C@@H]([C@H]2O[C@H](SC)[C@H](O)[C@@H](O)[C@H]2O)[C@H](C)Cl)N(C)C1` [Clindamycin, clindamycin], the “MIC lower than radezolid” value in [2] was 8 fold. The MIC in data set [3] amounted to 0.25 µg/mL (≈ 0.588 µM).
With `C[C@H]1c2cccc(O)c2C(=O)C2=C(O)[C@]3(O)C(=O)C(C(N)=O)=C(O)[C@@H](N(C)C)[C@@H]3[C@@H](O)[C@@H]21` [DOX, doxycycline], the “MIC more potent than radezolid” value in data set [4] (B. thetaiotaomicron) is reported as 4 fold. Moreover, the MIC in data set [4] was 2 µg/mL (≈ 4.5 µM). For the same compound, the “MIC lower than radezolid” value in data set [2] is 4 fold.
In the case of `CC[C@H]1OC(=O)[C@H](C)[C@@H](O[C@H]2C[C@@](C)(OC)[C@@H](O)[C@H](C)O2)[C@H](C)[C@@H](O[C@@H]2O[C@H](C)C[C@H](N(C)C)[C@H]2O)[C@](C)(O)C[C@@H](C)C(=O)[C@H](C)[C@@H](O)[C@]1(C)O` [ERY, erythromycin], in data set [4], the MIC came out at 16 µg/mL (≈ 21.8 µM).
Take `O=S(=O)(O)CCS(=O)(=O)O` [Ethane-1,2-disulfonate]: in [5], the “DVS Desorption: weight loss from 95 to 5% RH” value is reported as “Desorption: 2.388% weight loss” and the “DVS Sorption: weight loss upon equilibration at 5% RH” value was “Sorption: 0.017% weight loss”. For the same compound, in data set [6], the “Adjusted pH” value is 3.6 and the “Native pH” value amounted to 2.0. The “Solubility at Native pH” value in data set [6] (water, 23° C., HPLC) was above 133.2 mg/mL. Also, the “Solubility at Adjusted pH” value in data set [6] (water, 23° C., HPLC, pH adjusted to approximately 3.5) is above 116.9 mg/mL.
Take `CC(=O)NC[C@H]1CN(c2ccc(-c3ccc(CNCc4c[nH]nn4)cc3)c(F)c2)C(=O)O1.Cl` [Hydrochloride, (5S)—N-[3-(2-Fluoro-4′-{[(1H-[1,2,3]triazol-4-ylmethyl)-amino]-methyl}-biphenyl-4-yl)-2-oxo-oxazolidin-5-ylmethyl]-acetamide Chloride]: the Solubility in data set [7] was above 100 µg/mL; in data set [6] (pH 4.6, thermodynamic from solid, water, 23° C., HPLC, read-out: Solubility at Native pH), 1700 µg/mL; in data set [8] (50% Ethanol/50% phosphate buffer (pH = 7.4), 19-21° C.), below 0.2 % w/w; in [8] (50% Ethanol/50% water, 19-21° C.), below 0.6 % w/w; in data set [8] (Diethylene glycol monoethyl ether (Transcutol), 19-21° C.), below 0.2 % w/w; in [8] (Ethanol, 19-21° C.), below 0.2 % w/w. The Solubility in data set [8] (Glycerin, 19-21° C.) is below 0.2 % w/w; in data set [8] (Hexylene glycol, 19-21° C.), below 0.2 % w/w; in [8] (PEG 300, 19-21° C.), below 0.2 % w/w; in data set [8] (Phosphate buffer (pH = 7.4), 19-21° C.) it was below 0.2 % w/w; in [8] (Propylene glycol, 19-21° C.), below 0.2 % w/w. Moreover, the “DVS Desorption: weight loss from 95 to 5% RH” value in [5] is given as “Desorption: 0.069% weight loss”. Further, the “DVS Sorption: weight gain from 5 to 95% RH” value in data set [5] amounted to 0.064% weight gain from 5 to. Moreover, in [5], the “DVS Sorption: weight gain upon equilibration at 5% RH” value was “Sorption: 0.03% weight gain”. The “Adjusted pH” value in data set [6] stood at 3.5. The “Native pH” value in [6] is 4.6.
As to `CC(=O)NC[C@H]1CN(c2ccc(N3CCOCC3)c(F)c2)C(=O)O1` [Linezolid, linezolid, reference compound], in data set [9] (rat, 100 mg/kg/day), the bone marrow cellularity entry was “decreased cellularity of sternal and femoral bone marrow”. The same compound came in with an MIC in [3] of 2 µg/mL (≈ 5.93 µM). Moreover, in data set [10] (rat, 100 mg/kg/day, day 75), the “hematology at unscheduled euthanization” value was “decreased red cell mass, absolute reticulocyte and neutrophil counts”.
On to `Cc1ncc([N+](=O)[O-])n1CCO` [MET, metronidazole], for which, in data set [4], the MIC came to 4 µg/mL (≈ 23.4 µM).
Consider `CC(=O)NC[C@H]1CN(c2ccc(-c3ccc(CNCc4cnn[nH]4)cc3)c(F)c2)C(=O)O1` [Radezolid, N-[3-(2-Fluoro-4′-{[(1H-[1,2,3]triazol-4-ylmethyl)-amino]-methyl}-biphenyl-4-yl)-2-oxo-oxazolidin-5-(S)-ylmethyl]-acetamide], for which the “agar dilution MICs, range over organisms” value in data set [11] lay in the range of 0.06 to 1 µg/mL. This compound came in with a survival in [9] (both, rat) of 100%. Besides, the “safety in long-term rat studies, overall” value in [9] is given as “good safety”. In data set [9] (rat), the “changes in hematology, coagulation, clinical chemistry, or urinalysis” value is listed as “No test article-related changes were observed”. Moreover, the Solubility in data set [12] (Benzyl benzoate (BB)) is reported as below 1.5 % w/w; in [12] (Cyclomethicone), below 0.75 % w/w; in [12] (Diisopropyl adipate (DIA)), below 1.5 % w/w; in [12] (Mineral oil) it was below 1 % w/w; in data set [12] (Oleic acid), below 0.75 % w/w. Moreover, the “Agar dilution MIC more potent than linezolid” value was 8 fold in [13], 4 fold in [16], 8 fold in data set [18] and 4 fold in data set [19]. In addition, the “radezolid levels in granuloma pouch versus plasma over time” value in data set [14] was “remain high in granuloma pouch even as they decline in the plasma”. The “Broth microdilution: more active than linezolid” value in [15] and in data set [17] was 8 fold throughout. Also, the MIC in [3] was determined as 1 µg/mL (≈ 2.28 µM). For the same compound, the “Safety margin (Rat NOAEL AUC/Human efficacious AUC)” value in data set [10] (rat 200 mg/kg Day 29 vs human 300 mg) was 30.8x. In data set [20], the “accumulation in mammalian cells, greater extent than linezolid” value is listed as 17 fold. In addition, the “share accumulating in the cytosol of cells” value in [20] is “Approximately 60%”. Further, the “share accumulating in the lysosome” value in [20] was “approximately 40%”.
In the case of `O=C(O)c1ccccc1O` [Salicylate], the Solubility in data set [21] is below 30 µg/mL.
For `CN(C)[C@@H]1C(O)=C(C(N)=O)C(=O)[C@@]2(O)C(O)=C3C(=O)c4c(O)cccc4[C@@](C)(O)[C@H]3C[C@@H]12` [TET, tetracycline], the MIC in data set [4] is 8 µg/mL (≈ 18 µM).
On to Fumarate, for which the Solubility in data set [21] (HPLC grade water, ambient temperature) was found to be 2600 µg/mL.
Regarding Phosphate, the Solubility in [21] was 1100 µg/mL.
